Read-outs that look alike come from different tables or passages of the source.

One data set has as its system HCMV. The experiment in a line: Antiviral activity against human CMV in vitro. As to conditions: for EC50: Human betaherpesvirus 5, read-out: EC50 HCMV; for EC90: Human betaherpesvirus 5, read-out: EC90 HCMV.
The next data set deals with MCMV. Briefly: Antiviral activity against murine CMV in vitro. The conditions noted are these: in Mus musculus; for EC50: read-out: EC50 MCMV; for EC90: read-out: EC90 MCMV.
For the next data set, the system named is HSV-1. It is filed as cell-based. As to conditions: Human alphaherpesvirus 1, MRC5, DNA reduction assay in MRC-5 cells.
A further data set relates to VZV. Briefly: VZV CPE assay in HFF cells. It is filed as cell-based. The conditions noted are these: Human alphaherpesvirus 3.
The subject of the next data set is HIV-tLal. It counts as cell-based. As to conditions: Human immunodeficiency virus 1, MT2, read-out: HIV-1 EC50.
For the next data set, the system named is Wild Type HBV. The experiment in a line: HBV replicative intermediates in vitro, wild type HBV. The conditions noted are these: Hepatitis B virus, read-out: EC50 for intracellular HBV replicative intermediates (HBV R.I.), Wild Type.
The test system of a further data set is EBV. Briefly: EBV Elisa assay in Daudi cells. It counts as cell-based. As to conditions: human gammaherpesvirus 4, Daudi, read-out: EBV EC50.
Data set [1] is described as follows: in vitro.
Data set [2] in a line: in vitro. The source holds these as a separate data set.
The mark [3] stands for this setting: Hepatitis B virus, read-out: HBV EC50, DNA reduction assay in 2.2.15 cells.
The mark [4] stands for this setting: read-out: HBV EC50, DNA reduction assay in 2.2.15 cells.

Take `CCCCCCCCCCCCCCCCCCOCCOP(=O)(O)CC/C=C\Cn1cnc2c(=O)[nH]c(N)nc21` [ODE-PPen-G, (Z)-2-(octadecyloxy)ethyl hydrogen 5-(2-amino-6-oxo-1,6-dihydropurin-9-yl)pent-3-enylphosphonate]: the EC50 – broadly, the concentration needed to bring the measured effect to its halfway point – came out at 0.17 µM in the data set on HCMV, 0.004 µM in the data set with MCMV and 4.6 µM in the data set on HSV-1. For the same molecule, the 90% effect concentration (EC90) (in general, the concentration at which the effect reaches the 90% level) amounted to 0.81 µM in the data set with HCMV and 0.03 µM in the data set with MCMV.

With `Nc1nc2c(ncn2CC=CCCP(=O)(O)O)c(=O)[nH]1` [PPen-G, 9-(5-Phosphono-pent-2-en-1-yl)-guanine], the concentration giving a half-maximal response (EC50) in the data set on VZV was 7.2 µM; in the data set on HIV-tLal it was above 100 µM; with HBV (setting [3]), above 30 µM; with HSV-1 it was above 30 µM.

In the case of `CCCCCCCCCCCCCCCCOCCCOP(=O)(O)CC/C=C\Cn1cnc2c(N)ncnc21` [HDP-PPen-A], the half-maximal effective concentration (EC50) in the data set on VZV was above 60 µM; with Wild Type HBV, 9.2 µM; in the data set on HIV-tLal, above 10 µM; with HBV (setting [3]), 1.1 µM; in the data set with HBV (setting [4]), 2 µM; in the data set on EBV, 0.1 µM. The molecule also had an EC50 in the data set with HSV-1 of 17.7 µM.

`CCCCCCCCCCCCCCCCOCCCOP(=O)(O)CC/C=C\Cn1cnc2c(=O)[nH]c(N)nc21` [HDP-PPen-G, (Z)-3-(hexadecyloxy)propyl hydrogen 5-(2-amino-6-oxo-1,6-dihydropurin-9-yl)pent-3-enylphosphonate]: the half-maximal effective concentration (EC50) was 0.15 µM in the data set on VZV; 8.8 µM in the data set with Wild Type HBV; above 10 µM in the data set with HIV-tLal; 2.4 µM in the data set with HBV (setting [3]); 2.5 µM with HBV (setting [4]); 48 µM in the data set with EBV.

For `CCCCCCCCCCCCCCCCOCCCOP(=O)(O)CC/C=C\Cn1ccc(=O)[nH]c1=O` [HDP-PPen-U, (3Z)-3-(hexadecyloxy)propyl hydrogen 5-(3,4-dihydro-2,4-dioxopyrimidin-1(2H)-yl)pent-3-enylphosphonate], the values for the EC50 in the data set with HIV-tLal, in the data set with HBV (setting [3]) and in the data set with HSV-1 were above 10 µM, above 30 µM and above 30 µM, respectively.

Consider `CCCCCCCC/C=C\CCCCCCCCOCCOP(=O)(O)CC/C=C\Cn1cnc2c(=O)[nH]c(N)nc21` [OLE-PPen-G, (Z)-2-(octadec-9-enyloxy)ethyl hydrogen 5-(2-amino-6-oxo-1,6-dihydropurin-9-yl)pent-3-enylphosphonate], for which the figures for the concentration giving a half-maximal response (EC50) in the data set with HCMV, in the data set with MCMV and in the data set on HSV-1 were 0.47 µM, 0.028 µM and 0.68 µM, respectively. For the same molecule, the concentration for an effect of 90% (EC90) turned out to be 0.89 µM in the data set with HCMV and 0.12 µM in the data set on MCMV. Moreover, the CC50 in “in vitro [1]” and in “in vitro [2]” was above 1 µM throughout.

For the molecule `Nc1ccn(CC=CCCP(=O)(O)O)c(=O)n1` [PPen-C, 1-(5-Phosphono-pent-2-en-1-yl)cytosine], the EC50 in the data set on VZV was above 60 µM; with HIV-tLal, above 100 µM; with HBV (setting [3]), above 30 µM; in the data set with HSV-1 it was above 30 µM.

Consider `CCCCCCCCCCCCCCCCOCCCOP(=O)(O)CC/C=C\Cn1ccc(N)nc1=O` [HDP-PPen-C, (3Z)-3-(hexadecyloxy)propyl hydrogen 5-(4-amino-2-oxopyrimidin-1(2H)-yl)pent-3-enylphosphonate], for which the half-maximal effective concentration (EC50) came to 2.5 µM in the data set with HIV-tLal and 4.7 µM with HSV-1.

In the case of `Nc1ncnc2c1ncn2CC=CCCP(=O)(O)O` [PPen-A, 9-(5-Phosphono-pent-2-en-1-yl)-adenine], the EC50 in the data set with VZV is above 300 µM; with HIV-tLal, above 100 µM; in the data set on HBV (setting [3]), above 30 µM; in the data set with EBV it was above 4 µM; in the data set with HSV-1, above 30 µM.

As for `O=c1ccn(CC=CCCP(=O)(O)O)c(=O)[nH]1` [PPen-U, 1-(5-Phosphono-pent-2-en-1-yl)-uracil], the EC50 in the data set on VZV is above 300 µM; with HIV-tLal, above 100 µM; in the data set on HBV (setting [3]), above 30 µM; with HSV-1 it was above 30 µM.

`CCCCCCCCCCCCCCCCOCCCOP(=O)(O)CC/C=C\Cn1cc(C)c(=O)[nH]c1=O` [HDP-PPen-T]: the EC50 in the data set on HIV-tLal stood at 1 µM; in the data set on HSV-1, 0.9 µM.

In the case of `Cc1cn(CC=CCCP(=O)(O)O)c(=O)[nH]c1=O` [PPen-T, 1-(5-Phosphono-pent-2-en-1-yl)-thymine], the half-maximal effective concentration (EC50) is above 300 µM in the data set on VZV, above 100 µM with HIV-tLal, above 30 µM with HBV (setting [3]) and above 30 µM in the data set on HSV-1.

The record behind these values is patent US8222257B2, “Phosphono-pent-2-en-1-yl nucleosides and analogs” (The Regents of the University of California, priority 2005, dated 2012).
